Laboratory results: patent US20120115944A1, “USE OF CARNITINE AND DIHYDROQUERCITIN TO POSITIVELY INFLUENCE THE NATURAL PIGMENTATION PROCESS” (Henkel AG & Co., KGaA, priority 2009, published 2012)

Tests used:
Format in all cases: cell-based
[1] = test system: organotypic cell cultures made up of three-dimensionally cultivated dermal papilla cells; test: ATP content in hair follicle cell cultures (ATPlite-M assay); settings: 24 hours, untreated = 100
Source text: (§1) L-Carnitine and L-carnitine tartrate were investigated with regard to their effects on ATP synthesis the excretion of the growth factors HGF (hepatocyte growth factors) and KGF (keratinocyte growth factor). ATP (adenosine triphosphate) is the universal storage form for chemical energy in cells. Release of the phosphate groups yields ADP and Pi (inorganic phosphate). This reaction is highly exergonic, i.e. energy is released. ATP is produced in the cellular oxidative breakdown of fats, carbohydrates, and proteins. It serves as an energy supply for biochemical syntheses (including melanin synthesis), for transport operations (active transport), and for mechanical work. These processes are endergonic, i.e. they proceed only when energy is delivered. HGF and KGF are important growth factors with which the dermal papilla controls hair growth and the hair cycle, to which pigment production in the hair follicle is linked in particular fashion. Melanin formation takes place exclusively in the anagen phase of the hair cycle. In addition, a variety of publications have discussed the effect of HGF on DNA synthesis, on growth, and on the differentiation of melanocytes.
The ATP determination was performed using the ATPlite™-M assay (Packard). The test principle of this assay is based on the fact that the luciferase of Photinus pyralis catalyzes a reaction in which D-luciferin is converted into oxyluciferin in the presence of ATP. This reaction causes the emission of green light, which can be measured with a luminometer. The emitted bioluminescent light is proportional to the quantity of ATP present.
The ATP activity determination was performed in organotypic cell cultures made up of three-dimensionally cultivated dermal papilla cells. The treatment with carnitine and carnitine tartrate occurred over 24 hours, against an untreated control.

KGF = test: Relative excretion of KGF (ELISA) in organotypic hair follicle cell cultures; settings: 72 hours, untreated = 100
Source text: as §1, with “In addition, a variety of publications have discussed the effect of HGF on DNA synthesis, on growth, and on the differentiation of melanocytes.” left out
(§2) The excretion of HGF and KGF can be quantified with the aid of a commercially obtainable ELISA kit. For this, organotypic hair follicle cell cultures made up of dermal papilla cells, hair follicle melanocytes, and outer root sheath keratinocytes are incubated for 72 hours with carnitine tartrate, and the concentration of HGF and KGF in the medium is determined.

HGF = test: Relative excretion of HGF (ELISA) in organotypic hair follicle cell cultures; settings: 72 hours, untreated = 100
Source text: as §1, with “In addition, a variety of publications have discussed the effect of HGF on DNA synthesis, on growth, and on the differentiation of melanocytes.” left out
as §2

gp100 = test: Differential gene expression by quantitative RT-PCR in organotypic hair follicle cell cultures: gp100; settings: 48 h incubation, untreated control = 1
Source text: Gp100 is a protein that occurs in the membrane of melanosomes and stabilizes it. Because more melanin is produced in the cells after the application of substances that positively influence melanogenesis, an increase also occurs in the number of melanosomes required for transport. A substance that induces the gene expression of gp100 is therefore a pigmentation-stimulating active substance. A determination of the extent of the change in gene expression after an application of such substances onto suitable cells/cell systems/tissue cultures can provide information regarding the efficacy of the active substance. Differential gene expression was determined by means of quantitative RT-PCR. After three-dimensional organotypic hair follicle cell cultures from dermal papilla cells had been produced on microcarriers, the latter were incubated for 48 h with dihydroquercetin in two different concentrations. In order to carry out the PCR, firstly the RNA was isolated from the organotypic cell cultures using the RNeasy Mini Kit of the Qiagen company, and it was transcribed into cDNA by reverse transcription. In the context of the subsequent PCR reaction, which was carried out using gene-specific primers for the respective genes and which serves to amplify the desired gene segments, formation of the PCR products was detected online by way of a fluorescence signal, which is proportional to the quantity of PCR product formed. The stronger the expression of a specific gene, the greater the quantity of PCR product formed, and the higher the fluorescence signal. The quantify the gene expression, the untreated control was set to equal 1, and expression of the genes to be determined was referred to it (X-times expression). […] Values that are greater than or equal to 1.5 times the expression, or less than or equal to 0.7 times the expression, of the untreated control are classified as tending toward differential expression.

ckit = test: Differential gene expression by quantitative RT-PCR in organotypic hair follicle cell cultures: ckit; settings: 48 h incubation, untreated control = 1
Source text: Ligands participating in melanogenesis, such as SCF or alpha-MSH (melanocyte stimulating hormone alpha), bind to a variety of receptors by means of which the corresponding signal is delivered into the interior of the cell. The receptor for SCF is ckit, the receptor for alpha-MSH is MCR-1 (melanocortin receptor 1). Those substances that bring about a change in the expression of MCR-1 and/or ckit can influence melanogenesis. In the case of an induction (upregulation or stimulation) of the gene expression of the corresponding receptors, a stimulation of melanogenesis is to be assumed. A determination of the extent of the change in gene expression after an application of such substances onto suitable cells/cell systems/tissue cultures can provide information regarding the efficacy of the active substance. Differential gene expression was determined by means of quantitative RT-PCR. After three-dimensional organotypic hair follicle cell cultures from dermal papilla cells had been produced on microcarriers, the latter were incubated for 48 h with dihydroquercetin in two different concentrations. In order to carry out the PCR, firstly the RNA was isolated from the organotypic cell cultures using the RNeasy Mini Kit of the Qiagen company, and it was transcribed into cDNA by reverse transcription. In the context of the subsequent PCR reaction, which was carried out using gene-specific primers for the respective genes and which serves to amplify the desired gene segments, formation of the PCR products was detected online by way of a fluorescence signal, which is proportional to the quantity of PCR product formed. The stronger the expression of a specific gene, the greater the quantity of PCR product formed, and the higher the fluorescence signal. The quantify the gene expression, the untreated control was set to equal 1, and expression of the genes to be determined was referred to it (X-times expression). […]

[2] = test system: three-dimensional organotypic hair follicle cell cultures made up of dermal papilla cells, hair follicle melanocytes, and outer root sheath keratinocytes; test: Melanin content in hair follicle equivalents
Source text: Melanin is a dye that is produced and stored in the melanosomes of melanocytes. Melanin gives hair its actual color, the color being produced by a mixture of two types of melanin, eumelanin and pheomelanin. Melanogenesis is a complicated synthesis process regulated in many ways. Firstly, tyrosine is converted by the enzyme tyrosinase into L-dihydroxyphenylalanine (L-DOPA), and then via multiple intermediate steps into the various melanin pigments. An active substance that positively influences melanogenesis and results in an elevated melanin content in the hair follicle melanocytes is particularly suitable for influencing the natural pigmentation process of skin and/or skin appendages, preventing hair graying, and/or stimulating pigmentation.
To investigate the melanin content, three-dimensional organotypic hair follicle cell cultures made up of dermal papilla cells, hair follicle melanocytes, and outer root sheath keratinocytes were treated for 7 days with dihydroquercetin (10 μM and 100 μM). Untreated cell cultures served as controls. After 4 and 7 days the hair follicle equivalents were homogenized and the melanin was extracted for 45 minutes using NaOH (1M)+10% DMSO at 100° C. Aliquots of the samples were then transferred into a 96-well plate, and extinction at 492 nm was measured. The increase in melanin content from day 0 to day 7 was evaluated by referring all the values to the untreated control at day 7 (=100%).

[3] = test system: MCR1 (melanocortin receptor 1); test: Differential gene expression by quantitative RT-PCR in organotypic hair follicle cell cultures: MCR1; settings: 48 h incubation, untreated control = 1
Source text: Ligands participating in melanogenesis, such as SCF or alpha-MSH (melanocyte stimulating hormone alpha), bind to a variety of receptors by means of which the corresponding signal is delivered into the interior of the cell. The receptor for SCF is ckit, the receptor for alpha-MSH is MCR-1 (melanocortin receptor 1). Those substances that bring about a change in the expression of MCR-1 and/or ckit can influence melanogenesis. In the case of an induction (upregulation or stimulation) of the gene expression of the corresponding receptors, a stimulation of melanogenesis is to be assumed. A determination of the extent of the change in gene expression after an application of such substances onto suitable cells/cell systems/tissue cultures can provide information regarding the efficacy of the active substance. Differential gene expression was determined by means of quantitative RT-PCR. After three-dimensional organotypic hair follicle cell cultures from dermal papilla cells had been produced on microcarriers, the latter were incubated for 48 h with dihydroquercetin in two different concentrations. In order to carry out the PCR, firstly the RNA was isolated from the organotypic cell cultures using the RNeasy Mini Kit of the Qiagen company, and it was transcribed into cDNA by reverse transcription. In the context of the subsequent PCR reaction, which was carried out using gene-specific primers for the respective genes and which serves to amplify the desired gene segments, formation of the PCR products was detected online by way of a fluorescence signal, which is proportional to the quantity of PCR product formed. The stronger the expression of a specific gene, the greater the quantity of PCR product formed, and the higher the fluorescence signal. The quantify the gene expression, the untreated control was set to equal 1, and expression of the genes to be determined was referred to it (X-times expression). […] Values that are greater than or equal to 1.5 times the expression, or less than or equal to 0.7 times the expression, of the untreated control are classified as tending toward differential expression.

[4] = 100 μM, listed as dihydroquercetin

## C[N+](C)(C)C[C@H](O)CC(=O)[O-].O=C(O)C(O)C(O)C(=O)O [Carnitine tartrate, L-carnitine tartrate]
[1]; 0.01%, listed as carnitine tartrate, tartrate
  ATP (%) M: increase the ATP content in the treated cultures significantly
[1]; 0.01%, tartrate
  ATP (%) M: 195%
[1]; 0.05%
  ATP (%) M: 102%
KGF; 0.005%
  KGF (%) M, relative excretion: 123%
HGF; 0.005%
  HGF (%) M, relative excretion: 141%

## C[N+](C)(C)CC(O)CC(=O)[O-] (stereo not shown) [Carnitine, 3-hydroxy-4-(trimethylammonium)butyric acid betaine]
[1]; 0.05%
  ATP (%) M: 212%
[1]; 0.05%, listed as carnitine
  ATP (%) M: increase the ATP content in the treated cultures significantly
[1]; 0.1%
  ATP (%) M: 160%
[1]; 0.1%, listed as carnitine
  ATP (%) M: increase the ATP content in the treated cultures significantly
KGF; 0.01%
  KGF (%) M, relative excretion: 120%
HGF; 0.01%
  HGF (%) M, relative excretion: 105%

## O=C1c2c(O)cc(O)cc2OC(c2ccc(O)c(O)c2)C1O (stereo not shown) [Dihydroquercetin, 3,3′,4′,5,7-pentahydroxyflavanone]
gp100; 10 μM
  gp100 expression M (X-times expression): 0.89
gp100; 100 μM
  gp100 expression M (X-times expression): 3.48
gp100; [4]
  gp100 expression M (X-times expression): induced
ckit; 10 μM
  ckit expression M (X-times expression): 1.32
ckit; 100 μM
  ckit expression M (X-times expression): 3.55
ckit; [4]
  ckit expression M (X-times expression): induced
[2]; 10 μM, d 4
  Melanin content (%) M: 100%
[2]; 10 μM, d 7, untreated d 7 = 181
  Melanin content (%) M: 254%
[2]; 100 μM, d 4
  Melanin content (%) M: 100%
[2]; 100 μM, d 7, untreated d 7 = 181
  Melanin content (%) M: 161%
[3]; 10 μM
  MCR1 expression M (X-times expression): 2.56
[3]; 10 μM, listed as dihydroquercetin
  MCR1 expression M (X-times expression): significantly differentially expressed
[3]; 100 μM
  MCR1 expression M (X-times expression): 5.17
[3]; [4]
  MCR1 expression M (X-times expression): induced
